According to publication PMC5487681, “Identification of Antifungal H^+-ATPase Inhibitors with Effect on Plasma Membrane Potential” (Antimicrobial Agents and Chemotherapy, 2017):
Converted amounts (≈) assume the structure as drawn. Residues, ends and D or L forms follow the SMILES beside them.

Key:
[1] = test system: Saccharomyces cerevisiae ATCC 9763; assay: microbe, parasite or virus in culture; type: cell-based; settings: ATCC 9763; read-out: MIC for growth inhibition, S. cerevisiae
Protocol: (§1) The following fungal isolates were used: Saccharomyces cerevisiae ATCC 9763, Candida albicans SC5314, Candida parapsilosis ATCC 22019, Candida tropicalis Ct016, Candida glabrata ATCC 90030, Aspergillus fumigatus ATCC 13073, and Aspergillus flavus ATCC MYA-1005. Frozen stocks of yeast isolates in glycerol (final concentration, 20%) were prepared by growing the cells to log phase in YPD medium at 30°C and 150 rpm. Frozen stocks of mold spores were prepared by harvesting spores from 7-day-old potato glucose agar plates in phosphate-buffered saline, 0.1% Tween 80 and aliquoting these spores in the presence of glycerol (final concentration, 20%). The cells were stored at −80°C. The cells or spores were thawed and diluted to a final concentration of 0.5 × 10^5 to 2.5 × 10^5 CFU/ml in sterile Milli-Q H2O. […] The plate was incubated for 20 to 24 h at 34°C (72 h for molds), and the OD490 was measured on a Victor X5 (PerkinElmer) plate reader. Mold growth assay plates were also visually inspected. The MIC was defined as the lowest concentration inhibiting the visual growth of the microorganism. Standard errors were typically below 5%.

[2] = test system: Aspergillus flavus ATCC MYA-1005; assay: microbe, parasite or virus in culture; type: cell-based; settings: ATCC MYA-1005; read-out: MIC for growth inhibition, A. flavus
Protocol: as §1

Ca^2+-ATPase (SERCA1a) = Ca^2+-ATPase (SERCA1a) (Oryctolagus cuniculus, UniProt P04191); assay: ATP hydrolysis assay, SERCA; type: biochemical, rabbit
Protocol: Rabbit sarcoplasmic reticulum membranes containing sarcoplasmic endoplasmic reticulum Ca^2+-ATPase (SERCA) were kindly provided by Claus E. Olesen and Jesper V. Møller, Aarhus University, and prepared as described in reference. Porcine kidney Na^+,K^+-ATPase was kindly provided by Natalya Fedosova, Aarhus University, and prepared as described in reference.
The protein activity levels were determined by measuring the amount of free phosphate produced from the ATP hydrolysis reaction. The assay was performed as described in reference. Each well contained ATPase enzyme, 2 μl of inhibitor (usually in the range of 333 to 0.01 μM) dissolved in dimethyl sulfoxide (DMSO) (Duchefa Biochemie, Haarlem, The Netherlands), and an assay buffer dependent on the enzyme for a final volume of 60 μl. Possible compound precipitation in the assay buffer was monitored using a Nephelostar plate reader measuring turbidity, and the information was taken into account in the IC50 determination. Pma1 assay buffer consisted of 20 mM 3-(N-morpholino)propanesulfonic acid (MOPS)–NaOH, pH 6.5 or 7.0, 8 mM MgSO4, 50 mM KNO3 (a vacuolar ATPase inhibitor), 25 mM sodium azide (a mitochondrial ATPase inhibitor), and 250 μM sodium molybdate (an acid phosphatase inhibitor). SERCA buffer consisted of 9 mM MOPS-NaOH, pH 7, 2.7 mM MgCl2, 90 μM CaCl2, and 72 mM KCl. Na^+,K^+-ATPase buffer consisted of 30 mM MOPS-NaOH, pH 7, 40 mM NaCl, 4 mM MgCl2, and 20 mM KCl. The concentration of protein was adjusted to obtain a signal of the optical density at 860 nm (OD860) of between 0.5 and 1.0 in the untreated samples (for all Pma1 batches, ∼1 to 2 μg/well; for SERCA and Na^+,K^+-ATPase, ∼0.1 to 0.2 μg/well).

[3] = test system: Aspergillus fumigatus ATCC 13073; assay: microbe, parasite or virus in culture; settings: for MIC: Aspergillus fumigatus, ATCC13073, 72 h, pH 7, read-out: MIC A. fumigatus
Candida albicans SC5314 = assay: microbe, parasite or virus in culture; settings: for MIC: Candida albicans, SC5314, pH 7, read-out: MIC C. albicans
Candida spp. = assay: Fungal growth inhibition, Candida spp. (text summary of Table 1); type: cell-based; settings: 38 μM highest concentration tested for compounds 4 and 8, read-out: MIC for several of the Candida spp. tested
Protocol: as §1

Sequence of Ca^2+-ATPase (SERCA1a) (P04191 1-994 isoform P04191-2): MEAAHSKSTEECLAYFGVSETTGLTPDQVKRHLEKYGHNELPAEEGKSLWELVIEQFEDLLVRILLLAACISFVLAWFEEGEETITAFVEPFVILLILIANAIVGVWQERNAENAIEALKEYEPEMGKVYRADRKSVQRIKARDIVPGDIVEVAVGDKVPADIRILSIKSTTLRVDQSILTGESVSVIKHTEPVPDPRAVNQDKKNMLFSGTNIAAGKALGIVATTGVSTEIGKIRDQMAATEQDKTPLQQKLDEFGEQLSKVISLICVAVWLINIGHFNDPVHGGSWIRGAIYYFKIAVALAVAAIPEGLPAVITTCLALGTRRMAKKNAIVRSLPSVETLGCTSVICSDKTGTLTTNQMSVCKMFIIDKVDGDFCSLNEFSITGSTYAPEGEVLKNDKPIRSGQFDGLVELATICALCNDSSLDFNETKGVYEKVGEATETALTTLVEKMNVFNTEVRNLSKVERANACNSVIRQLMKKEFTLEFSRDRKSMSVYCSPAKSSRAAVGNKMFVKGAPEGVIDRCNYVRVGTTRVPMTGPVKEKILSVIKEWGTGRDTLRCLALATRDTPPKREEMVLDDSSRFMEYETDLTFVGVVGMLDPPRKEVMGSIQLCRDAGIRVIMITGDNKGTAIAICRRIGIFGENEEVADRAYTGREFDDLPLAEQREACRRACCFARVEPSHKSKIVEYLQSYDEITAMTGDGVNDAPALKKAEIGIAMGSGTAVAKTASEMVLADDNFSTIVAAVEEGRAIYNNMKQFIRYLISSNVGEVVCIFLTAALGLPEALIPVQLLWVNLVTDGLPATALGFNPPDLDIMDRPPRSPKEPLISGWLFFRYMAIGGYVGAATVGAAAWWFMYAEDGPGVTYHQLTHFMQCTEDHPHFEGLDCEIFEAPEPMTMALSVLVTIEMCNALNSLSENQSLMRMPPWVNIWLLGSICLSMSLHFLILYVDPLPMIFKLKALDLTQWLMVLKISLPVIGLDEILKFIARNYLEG

Structure (SMILES): N=C(N)NCCC[C@@H](N)C(=O)N[C@H](CCCNC(=N)N)C(=O)N[C@H](CCCNC(=N)N)C(=O)N[C@H](Cc1ccccc1)C(=O)N[C@H](Cc1c[nH]c2ccccc12)C(=O)N[C@H](Cc1c[nH]c2ccccc12)C(=O)N[C@H](Cc1ccccc1)C(=O)N[C@H](CCCNC(=N)N)C(=O)N[C@H](CCCNC(=N)N)C(=O)N[C@H](CCCNC(=N)N)C(N)=O [BM2, reference compound] (HELM PEPTIDE1{[dR].[dR].[dR].[dF].[dW].[dW].[dF].[dR].[dR].[dR].[am]}$$$$V2.0)
- MIC [1]: 4.7 µM (≈ 7.62 µg/mL)
- MIC [2]: >150 µM
- IC50 (Ca^2+-ATPase (SERCA1a)): 1.1 µM
- MIC for growth inhibition, A. fumigatus ([3]; ATCC 13073): >150 µM
- MIC for growth inhibition, C. albicans (Candida albicans SC5314; SC5314): 15 µM

Structure (SMILES): O=C1/C(=C/c2ccc(-c3cc(Cl)ccc3Cl)o2)C=C(c2ccccc2)N1c1ccccc1O [Compound 1]
- IC50 (Ca^2+-ATPase (SERCA1a)): 17.5 ± 4.7 µM
- MIC [3]: > 150 µM
- MIC (Candida albicans SC5314): > 150 µM
- MIC (Candida spp.): > 150 µM

Structure (SMILES): COc1ccc(-c2cc(C(=O)Nc3ccc(C(C)C)cc3)c3ccccc3n2)c(OC)c1 [Compound 3]
- IC50 (Ca^2+-ATPase (SERCA1a)): > 105 µM
- MIC [3]: > 150 µM
- MIC (Candida albicans SC5314): > 150 µM
- MIC (Candida spp.): > 150 µM

Structure (SMILES): CC1CCCCN1CC(O)Cn1c(-c2ccccc2)c(-c2ccccc2)c2ccc3ccccc3c21 (stereo not drawn) [Compound 4]
- IC50 (Ca^2+-ATPase (SERCA1a)): 4.1 ± 0.2 µM
- MIC [3]: > 38 µM
- MIC (Candida albicans SC5314): 13 µM (≈ 6.17 µg/mL)
- MIC (Candida spp.): > 38 µM

Structure (SMILES): CCOc1ccc2nc3cc(NC(=O)c4cccc(Br)c4)ccc3c(N)c2c1 [Compound 5]
- IC50 (Ca^2+-ATPase (SERCA1a)): 0.46 ± 0.04 µM
- MIC [3]: > 75 µM
- MIC (Candida albicans SC5314): 6.5 µM (≈ 2.84 µg/mL)

Structure (SMILES): Cc1c(-c2ccccc2)[o+]c2ccccc2c1C#Cc1ccccc1 [Compound 6]
- MIC [3]: > 150 µM
- MIC (Candida albicans SC5314): > 150 µM
- MIC (Candida spp.): > 150 µM

Structure (SMILES): Oc1cccc(Nc2nc(-c3ccc(Cl)c(Cl)c3)cs2)c1 [Compound 7]
- MIC [3]: > 150 µM
- MIC (Candida albicans SC5314): 7.3 µM (≈ 2.46 µg/mL)

Structure (SMILES): COc1ccc(-c2cc(C(=O)Nc3ccc4c(c3)OCCO4)c3ccccc3n2)c(OC)c1 [Compound 8]
- IC50 (Ca^2+-ATPase (SERCA1a)): > 105 µM
- MIC [3]: > 38 µM
- MIC (Candida albicans SC5314): > 38 µM
- MIC (Candida spp.): > 38 µM

Structure (SMILES): COc1cccc(Nc2nc(Cl)nc(Nc3cccc(OC)c3)n2)c1 [Compound 9]
- IC50 (Ca^2+-ATPase (SERCA1a)): > 105 µM
- MIC [3]: > 150 µM
- MIC (Candida albicans SC5314): > 150 µM
- MIC (Candida spp.): > 150 µM
